Measured values published in PubChem BioAssay AID505 (SGCOxCompounds, 2006).
Values joined by “and” are separate entries in the source; they are usually repeats but may differ in a detail not shown here. Equal values may be shown once.

Target: Serine/threonine-protein kinase pim-2 (Homo sapiens) (UniProt Q9P1W9)
Assay: PIM2 kinase ligand binding by thermal shift, biophysical, human, melting temperature shift (AID 505)
Conditions: Recombinant PIM2 thermal shift, Tm change, at 10 µM, buffer 10 mM HEPES, pH 7.5, with 50 µM L-Arg/L-Glu (1:1), stronger effect = higher value

Sequence of Serine/threonine-protein kinase pim-2 (Homo sapiens) (Q9P1W9 whole entry, looked up): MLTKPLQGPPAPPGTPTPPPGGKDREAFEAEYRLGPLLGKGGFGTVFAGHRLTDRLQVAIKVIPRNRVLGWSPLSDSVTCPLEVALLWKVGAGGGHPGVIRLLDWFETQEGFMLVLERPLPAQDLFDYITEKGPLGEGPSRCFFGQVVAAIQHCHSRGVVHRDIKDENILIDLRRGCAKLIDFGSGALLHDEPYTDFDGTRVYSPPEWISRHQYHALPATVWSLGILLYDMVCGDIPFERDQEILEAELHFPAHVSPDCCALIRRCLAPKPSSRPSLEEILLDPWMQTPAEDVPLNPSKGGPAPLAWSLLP

| SMILES | Tm shift (NaCl 150 mM) | Tm shift (NaCl 100 mM) [Celsius] |
| --- | --- | --- |
| O=c1cc(-c2ccc(O)cc2)oc2cc(O)cc(O)c12 | 3.8 Celsius | – |
| Cc1c2ccncc2c(C)c2c1[nH]c1ccccc12 | 4.8 Celsius | – |
| Oc1cc(O)c2c(c1)O[C@H](c1ccc(O)c(O)c1)[C@@H](O)C2 | 3.2 Celsius | – |
| O=C1C(=O)C(c2ccc(O)cc2O)Oc2cc(O)cc(O)c21 (configuration not stated) | 6.2 Celsius | – |
| CCn1cnc2c(Nc3cccc(Cl)c3)nc(N[C@@H]3CCCC[C@@H]3N)nc21 | 5.45 Celsius | – |
| CC(C)[C@@H](CO)Nc1ccc2ncc(-c3cccc(OC(F)(F)F)c3)n2n1 | 4.06 Celsius | – |
| O=Nc1c(-c2c(O)[nH]c3ccc(S(O)(O)O)cc23)[nH]c2ccccc12 | 4.1 Celsius | – |
| COc1cc(C2Oc3cc(O)cc(O)c3C(=O)C2=O)ccc1O (configuration not stated) | 7.24 Celsius | – |
| Clc1cccc(Nc2ccn3ncc(-c4ccsc4)c3n2)c1 | – | 3.45 |
| NCCCn1cc(C2=C(c3c[nH]c4ccccc34)C(=O)NC2=O)c2ccccc21 | 5.63 Celsius | – |
| CC(C)(C)c1nc2c3cc[nH]c(=O)c3c3cc(F)ccc3c2[nH]1 | 5.1 Celsius | – |
| CC(=O)c1cccc(-c2cnc3ccc(NCC4CC4)nn23)c1 | – | 4.29 |
| CCC(CO)Nc1ccc2ncc(-c3cccc(OC(F)(F)F)c3)n2n1 (configuration not stated) | 5.92 Celsius | – |
| O=c1c(-c2ccc(O)cc2)coc2cc(O)ccc12 | 3.3 Celsius | – |
| N=C(N)SCCCn1cc(C2=C(c3c[nH]c4ccccc34)C(=O)NC2=O)c2ccccc21 | 5.64 Celsius | – |
| Fc1cccc(-c2cnc3ccc(NC4CCOCC4)nn23)c1 | 3.17 Celsius | – |
| O=C1NC(=O)c2c1c1c3ccccc3[nH]c1c1[nH]c3cc(Br)ccc3c21 | – | 6.31 |
| CC(O)(O)C1(O)C[C@@H]2O[C@@]1(C)n1c3ccccc3c3c4c(c5c6ccccc6n2c5c31)C(=O)NC4 (some centres not stated) | 3.79 Celsius | – |
| Clc1cccc(-c2cnc3ccc(NC4CCOCC4)nn23)c1 | – | 5.64 |
| O=C1C(=O)C(c2ccccc2)Oc2ccc(O)cc21 (configuration not stated) | 3.1 Celsius | – |

| SMILES | Tm shift (NaCl 150 mM) | Tm shift (NaCl 100 mM) [Celsius] |
| --- | --- | --- |
| O=c1[nH]c(O)c2c1c1c3ccccc3nc1n1cncc21 | 8 Celsius | – |
| O=C1C(=O)C(c2cc(O)c(O)c(O)c2)Oc2cc(O)cc(O)c21 (configuration not stated) | – | 4.13 |
| CN(C)CCCn1cc(C2=C(c3c[nH]c4ccccc34)C(=O)NC2=O)c2ccccc21 | 6.1 Celsius | 4.21 |
| O=C1c2ccccc2-c2n[nH]c3cccc1c23 | 4.6 Celsius | – |
| O=c1c(O)c(-c2ccc(O)c(O)c2)oc2cc(O)ccc12 | 6.11 Celsius | – |
| COc1cc(/C=C/C(=O)CC(=O)/C=C/c2ccc(O)c(OC)c2)ccc1O | 4.3 Celsius | – |
| O=c1c(O)c(-c2ccc(O)c(O)c2)oc2cc(O)cc(O)c12 | 8.58 Celsius and 7.16 Celsius | – |
| CC1N=C2SC=CN2C(=O)C1CCN1CCC(=C(c2ccccc2)c2ccc(F)cc2)CC1 (configuration not stated) | 4.3 Celsius and 3.8 Celsius | – |
| COC(=O)c1cnc2oc3ccc(O)cc3c2c1-c1ccccc1 | 6.25 Celsius | – |
| O=C1C(=O)C(c2ccc(O)cc2)Oc2cc(O)cc(O)c21 (configuration not stated) | 5.62 Celsius | – |
| COc1c(C=O)c(O)cc2c1C(=O)c1ccccc1C2=O | 3.3 Celsius | – |
| O=c1oc2cc(O)ccc2c2oc3cc(O)ccc3c12 | 4.4 Celsius | – |
| NCCNc1ncc(C(N)=O)c(Nc2cccc(C(F)(F)F)c2)n1 | 5.8 Celsius | – |
| O=c1c(O)c(-c2ccc(O)cc2)oc2cc(O)cc(O)c12 | 5.81 Celsius | – |
| Brc1c(Br)c(Br)c2n[nH]nc2c1Br | 4.25 Celsius | – |
| O=C1C(=O)C(c2cccc(O)c2)Oc2ccccc21 (configuration not stated) | 4.5 Celsius | – |
| N#C/C(=C1\Nc2ccccc2S1)c1ccnc(NCCc2cccnc2)n1 | 7.4 Celsius | – |
| O=C1NCc2c1c1c3ccccc3[nH]c1c1[nH]c3ccccc3c21 | 5.2 Celsius | – |
| CCC(CO)Nc1ccc2ncc(-c3cccc(C(C)=O)c3)n2n1 (configuration not stated) | 4.59 Celsius | – |
| O=C1NC(=O)C(c2c[nH]c3ccccc23)=C1c1c[nH]c2ccccc12 | 4.02 Celsius | – |

| SMILES | Tm shift (NaCl 150 mM) | Tm shift (NaCl 100 mM) [Celsius] |
| --- | --- | --- |
| NC1=N/C(=C2/CCNC(=O)c3[nH]c(Br)cc32)C(=O)N1 | 3.7 Celsius | 3.73 |
| CC(C)[C@@H](CO)Nc1ccc2ncc(-c3cccc(C(F)(F)F)c3)n2n1 | 4.39 Celsius | – |
| CCC(CO)Nc1ccc2ncc(-c3ccc(C(=O)O)cc3)n2n1 (configuration not stated) | 4.94 Celsius | – |
| FC(F)(F)Oc1cccc(-c2cnc3ccc(NC4CCOCC4)nn23)c1 | 5.78 Celsius | – |
| Cc1cc(O)c2c(c1)C(=O)c1cc(O)cc(O)c1C2=O | 4.2 Celsius | – |
| CC(=O)c1cccc(-c2cnc3ccc(N[C@H](CO)C(C)C)nn23)c1 | 3.77 Celsius | – |
| O=c1c(O)c(-c2cc(O)c(O)c(O)c2)oc2cc(O)cc(O)c12 | – | 4.74 |
| CCC(CO)Nc1ccc2ncc(-c3ccc(F)c(Cl)c3)n2n1 (configuration not stated) | 5.54 Celsius | – |
| CC(C)[C@@H](CO)Nc1ccc2ncc(-c3cccc(Cl)c3)n2n1 | 4.69 Celsius | – |
| O=c1cc(-c2ccc(O)c(O)c2)oc2cc(O)cc(O)c12 | 4.14 Celsius | – |
| O=C1NC(=O)c2c1c1c3ccccc3n3c1c1c2c2ccccc2n1[C@@H]1CCC3O1 | – | 11.1 |
| Cn1cc(C2=C(c3c4n(c5ccccc35)CCC(CN)C4)C(=O)NC2=O)c2ccccc21 (configuration not stated) | 3.6 Celsius | – |
| Cc1c(O)cc(O)c2c1OC(c1ccc(O)c(O)c1)C(=O)C2=O (configuration not stated) | 4.1 Celsius | – |
| Fc1ccc(CNc2ccc3ncc(-c4ccco4)n3n2)cc1 | – | 3.36 |
| O=c1c(-c2ccc(O)cc2)coc2cc(O)cc(O)c12 | 3.3 Celsius | – |
| Clc1cccc(-c2cnc3ccc(NCCc4ccccn4)nn23)c1 | – | 3.46 |
| O=C1Nc2ccc(I)cc2/C1=C/c1cc(Br)c(O)c(Br)c1 | 10.2 Celsius | – |
| CCC(CO)Nc1ccc2ncc(-c3ccc(O)cc3)n2n1 (configuration not stated) | 4.74 Celsius | – |
| O=C1Nc2ccccc2/C1=C\c1c(Cl)[nH]c2ccccc12 | 3.4 Celsius | – |
| CCN1/C(=C/C(C)=O)Sc2ccc(OC)cc21 | 3.1 Celsius | – |
